# Values of other authors in US10154967B2, “2,2′,6,6′-tetraisopropyl-4,4′-biphenol lipid microsphere preparations and preparation methods therefor” (XI'AN LIBANG PHARMACEUTICAL CO., LTD, priority 2012, dated 2018).
# Tests used:
# GABA receptors [1] = system: GABA receptors
# [2] = compared with propofol
# GABA receptors [3] = system: GABA receptors; remark: listed apart in the source
# [4] = system: excitotoxic effect induced by kainate (kainic acid)
# NMDA receptors = conditions: regulating the Ca2+ influx in Ca2+ channels
smiles,measurement,setting,value
CC(C)c1cc(-c2cc(C(C)C)c(O)c(C(C)C)c2)cc(C(C)C)c1O [biphenol],lipid solubility,,highly lipid soluble
same,solubility in water,,difficult to dissolve in water
same,action at GABA receptors,GABA receptors [1],agonist
same,loss of consciousness,patients,does not cause the patients to lose consciousness
same,antioxidant strength,[2],significantly stronger antioxidant than propofol
same,affinity towards GABA receptors,GABA receptors [3],strong affinity
same,protection against the excitotoxic effect induced by kainate,[4],protection
same,action at NMDA receptors,NMDA receptors,antagonist
